From patent US20240261417A1, “SOS1 DEGRADING AGENT AND PREPARATION METHOD THEREFOR AND APPLICATION THEREOF” (SHANGHAI LEADINGTAC PHARMACEUTICAL CO. LTD., priority 2021, published 2024) come the findings set out here.

This experiment has as its target T1, SOS1 protein (Homo sapiens, UniProt Q07889).
T1 sequence (Q07889 1-1333): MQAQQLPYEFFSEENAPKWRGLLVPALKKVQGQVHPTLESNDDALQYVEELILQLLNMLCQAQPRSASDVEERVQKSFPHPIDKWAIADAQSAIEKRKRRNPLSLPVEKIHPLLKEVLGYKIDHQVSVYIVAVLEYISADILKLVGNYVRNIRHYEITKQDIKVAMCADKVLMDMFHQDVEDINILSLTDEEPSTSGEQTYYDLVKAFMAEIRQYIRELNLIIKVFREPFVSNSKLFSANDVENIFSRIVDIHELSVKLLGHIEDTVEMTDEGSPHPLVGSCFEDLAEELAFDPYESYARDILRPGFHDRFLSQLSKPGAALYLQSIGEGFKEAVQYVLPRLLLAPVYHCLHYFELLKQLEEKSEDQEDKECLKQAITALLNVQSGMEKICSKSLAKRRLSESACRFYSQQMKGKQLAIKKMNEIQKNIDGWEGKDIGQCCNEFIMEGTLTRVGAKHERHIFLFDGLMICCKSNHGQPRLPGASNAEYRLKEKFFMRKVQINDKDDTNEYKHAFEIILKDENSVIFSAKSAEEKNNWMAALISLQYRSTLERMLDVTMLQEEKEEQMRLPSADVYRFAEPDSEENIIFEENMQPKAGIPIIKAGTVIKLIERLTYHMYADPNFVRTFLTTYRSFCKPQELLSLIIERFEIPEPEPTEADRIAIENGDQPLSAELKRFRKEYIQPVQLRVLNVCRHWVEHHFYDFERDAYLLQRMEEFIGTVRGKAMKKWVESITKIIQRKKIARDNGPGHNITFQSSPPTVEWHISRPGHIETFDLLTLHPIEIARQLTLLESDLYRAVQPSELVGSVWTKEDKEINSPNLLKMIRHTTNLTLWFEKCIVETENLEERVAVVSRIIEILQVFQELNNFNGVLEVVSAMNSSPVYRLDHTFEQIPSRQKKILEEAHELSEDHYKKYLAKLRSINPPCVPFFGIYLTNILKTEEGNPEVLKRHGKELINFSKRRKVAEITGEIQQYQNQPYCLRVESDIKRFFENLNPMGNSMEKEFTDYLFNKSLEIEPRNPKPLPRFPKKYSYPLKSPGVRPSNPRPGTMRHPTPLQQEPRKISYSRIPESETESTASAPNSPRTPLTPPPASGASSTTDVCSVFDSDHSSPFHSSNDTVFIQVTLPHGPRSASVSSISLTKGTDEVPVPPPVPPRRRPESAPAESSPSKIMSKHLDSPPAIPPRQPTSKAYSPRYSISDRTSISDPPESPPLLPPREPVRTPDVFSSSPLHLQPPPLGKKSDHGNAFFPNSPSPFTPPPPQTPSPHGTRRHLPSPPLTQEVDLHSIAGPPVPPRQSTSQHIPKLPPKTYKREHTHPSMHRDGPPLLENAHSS
Briefly: SOS1 degradation assay (Western blot), SW-620 cells. Format: cell-based. Also noted: host or cells: SW-620 (human cancer cell lines). Particulars: 24 h; for DC50: read-out: SW620 (G12V) DC50; for Dmax: read-out: SW620 (G12V) Dmax. The method, then:
The specific procedures were as follows:
0.95 mL of cells were seeded into each well of a 24-well cell culture plate to achieve a cell density of 5×10^5 cells/well; the cell plate was incubated in an incubator at 37° C. with 5% CO2 overnight. Then 50 μL of the compound solution after dilution was added to each of the wells with the corresponding cells, so that the final concentration of the compound was in a range of 0.03-3000 nM. […] After dosing, the cell plate was incubated in an incubator at 37° C. with 5% CO2 for 24 h. […] After the plate was left to stand on ice for 30 min, the protein lysate in each well was transferred to a 1.5 mL centrifuge tube and centrifuged at 15000 g for 20 min at 4° C. The cell lysate supernatant after centrifugation was cryopreserved at −80° C. for testing and was used for determining the degradation level of the SOS1 protein by a WB method. The concentration of total protein in the cell lysate supernatant was determined using the BCA Protein Quantification Kit (Tiangen, PA115-02).
The concentration of total protein in the cell lysate was determined by BCA. The total protein was adjusted to 0.5 μg/μL with PBS and 5× SDS-PAGE protein loading buffer (Beyotime, P0015L), incubated in a water bath at 100° C. for 15 min, incubated in an ice bath on ice for 5 min, centrifuged at 14000 g for 1 min at 4° C., and mixed well as a loading sample for WB. Protein electrophoresis was performed on a precast gel (KeyGEN, KGMGO10W15) with a loading volume of 10 μL (total protein: 5 μg) using a Tris-MOPS-SDS running solution (Adamas, P1598253) at a constant voltage of 120 V for 55 min. After the electrophoresis, the protein on the gel strip was transferred to a PVDF membrane at a constant current of 250 mA for 65 min. After the membrane transfer, the membrane was incubated in 1× QuickBlock blocking buffer (Beyotime, P0235) for 30 min at room temperature. […] The protein map was subjected to gray value analysis by the chemiluminescence imaging system from Clinx. […] Then the degradation rate was calculated by comparing the gray correction value with the gray correction value of the control group. Then nonlinear curve fitting was performed by GraphPad Prism 8 in the logarithmic concentration-inhibition rate to obtain the DC50 and Dmax values of the compounds.

SMILES strings stand for the structures.

In the case of `COc1cc2nc(C)nc(N[C@H](C)c3cc(N)cc(C(F)(F)F)c3)c2cc1[C@H]1CC[C@H](C(=O)N2CCN(CCOCC3CCN(C(=O)c4ccc(Cl)c(N5CCC(=O)NC5=O)c4)CC3)CC2)CC1` [Example 33, 1-(5-(4-((2-(4-((1R,4R)-4-(4-(((R)-1-(3-amino-5-(trifluoromethyl)phenyl)ethyl)amino)-7-methoxy-2-methylquinazolin-6-yl)cyclohexane-1-carbonyl)piperazin-1-yl)ethoxy)methyl)piperidine-1-carbonyl)-2-chlorophenyl)dihydropyrimidine-2,4(1H,3H)-dione], the DC50 is < 50 nM and the Dmax lay in the range of 80 to 100%.

Consider `COc1cc2nc(C)nc(N[C@H](C)c3cc(N)cc(C(F)(F)F)c3)c2cc1[C@H]1CC[C@H](C(=O)N2CCC(CCOCC3CCN(C(=O)c4ccc(Cl)c(N5CCC(=O)NC5=O)c4)CC3)CC2)CC1` [Example 19, 1-(5-(4-((2-(1-((1R,4R)-4-(4-(((R)-1-(3-amino-5-(trifluoromethyl)phenyl)ethyl)amino)-7-methoxy-2-methylquinazolin-6-yl)cyclohexane-1-carbonyl)piperidin-4-yl)ethoxy)methyl)piperidine-1-carbonyl)-2-chlorophenyl)dihydropyrimidine-2,4(1H,3H)-dione], for which the DC50 is < 50 nM and the Dmax lay in the range of 80 to 100%.

Regarding `COc1cc2nc(C)nc(N[C@H](C)c3cc(N)cc(C(F)(F)F)c3)c2cc1[C@H]1CC[C@H](C(=O)N2CCN(CC3CCC4(CC3)CCN(C(=O)c3ccc(Cl)c(N5CCC(=O)NC5=O)c3)CC4)CC2)CC1` [Example 2, 1-(5-(9-((4-((1R,4R)-4-(4-(((R)-1-(3-amino-5-(trifluoromethyl)phenyl)ethyl)amino)-7-methoxy-2-methylquinazolin-6-yl)cyclohexane-1-carbonyl)piperazin-1-yl)methyl)-3-azaspiro[5.5]undecane-3-carbonyl)-2-chlorophenyl)dihydropyrimidine-2,4(1H,3H)-dione], the DC50 was < 50 nM and the Dmax lay within 80 to 100%.

Consider `COc1cc2nc(C)nc(N[C@H](C)c3cc(N)cc(C(F)(F)F)c3)c2cc1[C@H]1CC[C@H](C(=O)N2CCN(CCC3CCC4(CC3)CCN(C(=O)c3ccc(Cl)c(N5CCC(=O)NC5=O)c3)CC4)CC2)CC1` [Example 1, 1-(5-(9-(2-(4-((1R,4R)-4-(4-(((R)-1-(3-amino-5-(trifluoromethyl)phenyl)ethyl)amino)-7-methoxy-2-methylquinazolin-6-yl)cyclohexane-1-carbonyl)piperazin-1-yl)ethyl)-3-azaspiro[5.5]undecane-3-carbonyl)-2-chlorophenyl)dihydropyrimidine-2,4(1H,3H)-dione], for which the DC50 was < 50 nM and the Dmax lay within 80 to 100%.

As to `CNCc1ccccc1-c1csc([C@@H](C)Nc2nc(C)nc3cc(OC)c([C@H]4CC[C@H](C(=O)N5CCN(CC6CCC7(CC6)CCN(C(=O)c6ccc(OC)c(N8CCC(=O)NC8=O)c6)CC7)CC5)CC4)cc23)c1` [Example 73, 1-(2-methoxy-5-(9-((4-((1R,4R)-4-(7-methoxy-2-methyl-4-(((R)-1-(4-(2-((methylamino)methyl)phenyl)thien-2-yl)ethyl)amino)quinazolin-6-yl)cyclohexane-1-carbonyl)piperazin-1-yl)methyl)-3-azaspiro[5.5]undecane-3-carbonyl)phenyl)dihydropyrimidine-2,4(1H,3H)-dione], the DC50 is < 50 nM and the Dmax lay in the range of 80 to 100%.

Take `COc1cc2nc(C)nc(N[C@H](C)c3cccc4c3CCS4(=O)=O)c2cc1[C@H]1CC[C@H](C(=O)N2CCN(CC3CCC4(CC3)CCN(C(=O)c3ccc(Cl)c(N5CCC(=O)NC5=O)c3)CC4)CC2)CC1` [Example 10, 1-(2-chloro-5-(9-((4-((1R,4R)-4-(4-(((R)-1-(1,1-dioxo-2,3-dihydrobenzo[b]thiophen-4-yl)ethyl)amino)-7-methoxy-2-methylquinazolin-6-yl)cyclohexane-1-carbonyl)piperazin-1-yl)methyl)-3-azaspiro[5.5]undecane-3-carbonyl)phenyl)dihydropyrimidine-2,4(1H,3H)-dione]: the DC50 was < 50 nM and the Dmax is 80 to 100%.
